According to PubChem BioAssay (NCI):
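All cell lines were grown in 96-well plates and treated with compound for 48 hours. GI50 is the concentration that inhibits growth by half. Definition used: TGI = concentration required for complete inhibition of growth.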

How the values were obtained:
Experiment in all cases: inhibition of tumour cell growth, NCI panel, 48 h
786-0 renal = test system: 786-0 renal
A498 renal = test system: A498 renal
A549 NSCLC = test system: A549 NSCLC
ACHN renal = test system: ACHN renal
BT-549 breast = test system: BT-549 breast
CAKI-1 renal = test system: CAKI-1 renal
CCRF-CEM leukemia = test system: CCRF-CEM leukemia
COLO 205 colon = test system: COLO 205 colon
DU-145 prostate = test system: DU-145 prostate
EKVX NSCLC = test system: EKVX NSCLC
HCC-2998 colon = test system: HCC-2998 colon
HCT-116 colon = test system: HCT-116 colon
HCT-15 colon = test system: HCT-15 colon
HL-60(TB) leukemia = test system: HL-60(TB) leukemia
HOP-62 NSCLC = test system: HOP-62 NSCLC
HOP-92 NSCLC = test system: HOP-92 NSCLC
HS 578T breast = test system: HS 578T breast
HT29 colon = test system: HT29 colon
IGROV1 ovarian = test system: IGROV1 ovarian
K-562 leukemia = test system: K-562 leukemia
KM12 colon = test system: KM12 colon
LOX IMVI melanoma = test system: LOX IMVI melanoma
M14 melanoma = test system: M14 melanoma
MALME-3M melanoma = test system: MALME-3M melanoma
MCF7 breast = test system: MCF7 breast
MDA-MB-231 breast = test system: MDA-MB-231 breast
MDA-MB-435 = test system: MDA-MB-435
MDA-MB-468 breast = test system: MDA-MB-468 breast
MOLT-4 leukemia = test system: MOLT-4 leukemia
NCI-H226 lung = test system: NCI-H226 lung

O=C(/C=C/Nc1ccc(Cl)cc1)c1ccc2c(c1)Nc1ccccc1S2
GI50 (786-0 renal): 11 µM | TGI (786-0 renal): 23.3 µM | GI50 (A498 renal): 18.4 µM | TGI (A498 renal): 42.5 µM | GI50 (A549 NSCLC): 6.43 µM | TGI (A549 NSCLC): 23.9 µM | GI50 (ACHN renal): 11 µM | TGI (ACHN renal): 27.8 µM | GI50 (BT-549 breast): 9.67 µM | TGI (BT-549 breast): 33.8 µM | GI50 (CAKI-1 renal): 10.1 µM | TGI (CAKI-1 renal): 24.6 µM | GI50 (CCRF-CEM leukemia): 16.9 µM | TGI (CCRF-CEM leukemia): 69.2 µM | GI50 (COLO 205 colon): 11.9 µM | TGI (COLO 205 colon): 28.6 µM | GI50 (DU-145 prostate): 8.43 µM | TGI (DU-145 prostate): 27.7 µM | GI50 (EKVX NSCLC): 14.6 µM | TGI (EKVX NSCLC): 36.8 µM | GI50 (HCC-2998 colon): 13.2 µM | TGI (HCC-2998 colon): 36.8 µM | GI50 (HCT-116 colon): 10.3 µM | TGI (HCT-116 colon): 29.9 µM | GI50 (HCT-15 colon): 14.9 µM | TGI (HCT-15 colon): > 100 µM | GI50 (HL-60(TB) leukemia): 69.8 µM | TGI (HL-60(TB) leukemia): > 100 µM | GI50 (HOP-62 NSCLC): 4.15 µM | TGI (HOP-62 NSCLC): 17.1 µM | GI50 (HOP-92 NSCLC): 12.6 µM | TGI (HOP-92 NSCLC): 29.9 µM | GI50 (HS 578T breast): 3.42 µM | TGI (HS 578T breast): 19 µM | GI50 (HT29 colon): 13.1 µM | TGI (HT29 colon): 32 µM | GI50 (IGROV1 ovarian): 13.2 µM | TGI (IGROV1 ovarian): 34.6 µM | GI50 (K-562 leukemia): 18.5 µM | TGI (K-562 leukemia): > 100 µM | GI50 (KM12 colon): 14.6 µM | TGI (KM12 colon): 55.2 µM | GI50 (LOX IMVI melanoma): 10.1 µM | TGI (LOX IMVI melanoma): 23.7 µM | GI50 (M14 melanoma): 14.6 µM | TGI (M14 melanoma): 40.2 µM | GI50 (MALME-3M melanoma): 11.4 µM | TGI (MALME-3M melanoma): 24.7 µM | GI50 (MCF7 breast): 6.64 µM | TGI (MCF7 breast): 23.9 µM | GI50 (MDA-MB-231 breast): 13.3 µM | TGI (MDA-MB-231 breast): 27.9 µM | GI50 (MDA-MB-435): 11.3 µM | TGI (MDA-MB-435): 39.4 µM | GI50 (MDA-MB-468 breast): 3.44 µM | TGI (MDA-MB-468 breast): 14.1 µM | GI50 (MOLT-4 leukemia): 17.6 µM | TGI (MOLT-4 leukemia): > 100 µM | GI50 (NCI-H226 lung): 11.6 µM
